Test results taken from publication PMC12645437, “Orthogonal IMiD-Degron Pairs Induce Selective Protein Degradation in Cells” (ACS Chemical Biology, 2025).

What was measured:
[1] = molecular target: T1, HA-NanoLuc-WEIS (Homo sapiens, UniProt Q96SW2+Q9UKT9, N149E/Q147W/Q150I); test: Nano-Glo luminescence assay in HEK293T cells; type: cell-based; conditions: NanoGlo
T1 construct: pLVX-Sprout-IKZF3 130-189aa Q147W N149E Q150I (WEIS); expressed in transfected cells; host or cells: HEK293T, lentiviral transduction, puromycin-selected
T1 sequence (Q9UKT9 130-189 Q147W/N149E/Q150I): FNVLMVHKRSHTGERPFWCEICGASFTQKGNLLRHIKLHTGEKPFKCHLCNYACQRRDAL
T1 sequence (Q96SW2 whole entry): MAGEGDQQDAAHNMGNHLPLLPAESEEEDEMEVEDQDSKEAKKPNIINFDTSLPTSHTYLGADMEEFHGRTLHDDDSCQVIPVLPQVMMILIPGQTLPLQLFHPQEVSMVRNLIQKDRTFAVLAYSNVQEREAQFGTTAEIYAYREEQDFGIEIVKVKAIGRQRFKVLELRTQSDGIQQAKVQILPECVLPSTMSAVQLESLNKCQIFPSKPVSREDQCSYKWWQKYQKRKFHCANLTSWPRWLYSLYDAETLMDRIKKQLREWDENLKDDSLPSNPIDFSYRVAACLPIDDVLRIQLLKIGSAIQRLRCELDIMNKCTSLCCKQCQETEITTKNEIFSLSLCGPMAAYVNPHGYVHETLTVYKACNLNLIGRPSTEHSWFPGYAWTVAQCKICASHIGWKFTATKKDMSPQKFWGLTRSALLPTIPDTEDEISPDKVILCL
T1 sequence (Q16531 whole entry partner): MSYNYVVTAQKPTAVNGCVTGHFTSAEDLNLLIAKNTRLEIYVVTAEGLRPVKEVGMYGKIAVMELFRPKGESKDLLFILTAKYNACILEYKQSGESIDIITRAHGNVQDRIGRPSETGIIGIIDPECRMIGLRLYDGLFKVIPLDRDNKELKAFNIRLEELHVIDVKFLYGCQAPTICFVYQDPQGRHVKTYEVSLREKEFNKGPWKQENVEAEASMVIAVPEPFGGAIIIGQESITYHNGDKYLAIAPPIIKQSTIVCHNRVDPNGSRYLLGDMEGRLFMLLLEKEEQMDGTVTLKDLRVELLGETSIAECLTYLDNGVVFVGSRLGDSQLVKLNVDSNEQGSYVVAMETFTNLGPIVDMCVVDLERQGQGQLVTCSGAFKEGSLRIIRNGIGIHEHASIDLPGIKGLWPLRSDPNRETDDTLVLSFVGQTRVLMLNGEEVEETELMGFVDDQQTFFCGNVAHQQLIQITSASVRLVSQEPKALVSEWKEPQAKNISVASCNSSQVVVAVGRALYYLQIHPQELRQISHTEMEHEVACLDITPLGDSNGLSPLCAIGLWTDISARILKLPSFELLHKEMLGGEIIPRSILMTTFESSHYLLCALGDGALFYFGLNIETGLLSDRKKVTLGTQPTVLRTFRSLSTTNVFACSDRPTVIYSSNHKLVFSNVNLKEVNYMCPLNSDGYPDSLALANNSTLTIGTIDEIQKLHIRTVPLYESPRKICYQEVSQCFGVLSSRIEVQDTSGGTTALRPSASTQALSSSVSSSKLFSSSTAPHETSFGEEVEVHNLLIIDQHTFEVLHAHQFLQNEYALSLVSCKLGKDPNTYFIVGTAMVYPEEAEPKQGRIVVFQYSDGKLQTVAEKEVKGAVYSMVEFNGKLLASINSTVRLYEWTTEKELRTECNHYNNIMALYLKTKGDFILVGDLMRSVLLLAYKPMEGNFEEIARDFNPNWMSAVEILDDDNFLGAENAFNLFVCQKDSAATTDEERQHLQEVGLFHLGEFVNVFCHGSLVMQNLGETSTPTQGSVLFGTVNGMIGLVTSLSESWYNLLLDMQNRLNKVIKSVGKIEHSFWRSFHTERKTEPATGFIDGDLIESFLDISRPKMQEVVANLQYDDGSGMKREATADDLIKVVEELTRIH
Procedure: To this end, a nuclear protein, CDK9, and a cytoplasmic protein, HPRT1, were selected, in addition to a well-characterized enzyme capable of generating bioluminescence, NanoLuc. , Fusion constructs comprising a POI with an N-terminal HA tag linked to the POI by two glycine residues and a C-terminal WEIS motif linked to the POI by a flexible [sequence] linker region were exogenously expressed in HEK293T cells.
Compound 23 (10 mM stock in DMSO) was serially diluted 10-fold to create an 5-point dilution spanning 1n M–10 μM (final assay concentration) and an untreated control, with all concentrations at 0.1% DMSO. HEK293T cells transduced with HA-NanoLuc-WEIS lentiviral vectors were seeded in white, opaque, flat-bottom 96-well plate (Falcon) at 2 × 10^4 cells per well in 40 µL
signal was measured by adding 40 µL of the Nano-Glo lytic detection reagent (Promega),
incubating at rt for 3 minutes, then reading using an EnVision multimode plate reader
(PerkinElmer). […] Three biological repeats
were carried out for this assay, with each biological replicate plate comprising three replicate

[2] = molecular target: T2, WEIS-EGFP degron in Jurkat cells (Homo sapiens, UniProt Q96SW2+Q9UKT9, N149E/Q147W/Q150I); test: GFP degradation flow cytometry assay with proteasome inhibitor carfilzomib; type: cell-based; conditions: carfilzomib (1 μM) pre-incubation; 1-24 h
T2 construct: pLVX-Sprout-IKZF3 130-189aa Q147W N149E Q150I (WEIS); expressed in transfected cells
T2 sequence (Q9UKT9 130-189 Q147W/N149E/Q150I): as the sequence (Q9UKT9 130-189 Q147W/N149E/Q150I) above
T2 sequence (Q96SW2 whole entry): as the sequence (Q96SW2 whole entry) above
T2 sequence (Q16531 whole entry partner): as the sequence (Q16531 whole entry partner) above

## CN1CCN(c2ccc3c(c2)C(=O)N(C2CCC(=O)NC2=O)C3=O)CC1 (stereo not shown) [Compound 23]
[1]; 6 h
  D max: 53%
[1]; 18 h
  D max: 35%
  DC50: 290 nM
[2]
  WEIS-EGFP degradation with carfilzomib: rescued
